From patent publication US8815811B2, “Peptides and methods for their preparation and use” (Eli Lilly and Company, priority 2010, dated 2014)
Where no end group is shown, it is not given here. [ ]: non-standard residue; d: D form. 1Nal = N[C@@H](Cc1cccc2ccccc12)C(=O)O; Aib = CC(C)(N)C(=O)O

Legend:
[1] = target: T1, hGlucR (Homo sapiens, UniProt P47871); test: Glucagon receptor (hGlucR) binding assay (SPA, I-125 glucagon); details: hGlucR 293HEK membranes
T1 construct: expressed in transfected cells; host or cells: 293HEK, Hygromycin-selected, phD expression plasmid
T1 sequence (P47871 26-477): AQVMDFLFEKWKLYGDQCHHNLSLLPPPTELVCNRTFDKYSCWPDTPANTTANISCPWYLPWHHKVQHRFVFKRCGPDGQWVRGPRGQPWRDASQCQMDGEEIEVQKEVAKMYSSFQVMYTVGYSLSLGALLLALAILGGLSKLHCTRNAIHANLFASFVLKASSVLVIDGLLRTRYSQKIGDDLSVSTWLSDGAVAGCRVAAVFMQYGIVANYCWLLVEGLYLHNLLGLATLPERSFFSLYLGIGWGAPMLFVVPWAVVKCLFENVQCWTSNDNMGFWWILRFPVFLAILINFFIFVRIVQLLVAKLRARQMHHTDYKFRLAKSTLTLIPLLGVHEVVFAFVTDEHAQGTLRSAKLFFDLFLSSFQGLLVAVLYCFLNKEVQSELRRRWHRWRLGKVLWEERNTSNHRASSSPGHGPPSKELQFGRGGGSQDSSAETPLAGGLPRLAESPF
Protocol: The hGlucR cDNA is subcloned into the expression plasmid phD (Trans-activated expression of fully gamma-carboxylated recombinant human protein C, an antithrombotic factor. Grinnell, B. W., et. al., Bio/Technology 5: 1189-1192 (1987)). This plasmid DNA is transfected into 293HEK cells and selected with 200 μg/mL Hygromycin.
Crude plasma membranes are prepared using cells from suspension culture. The cells are lysed on ice in hypotonic buffer containing 25 mM Tris HCl, pH 7.5, 1 mM MgCl2, DNAse1, 20 μ/mL, and Roche Complete™ Inhibitors without EDTA. The cell suspension is homogenized with a glass dounce homogenizer using a Teflon® pestle for 25 strokes. The homogenate is centrifuged at 4° C. at 1800×g for 15 minutes. The supernatant is collected and the pellet is resuspended in hypotonic buffer and rehomogenized. The mixture is centrifuged at 1800×g for 15 minutes. The second supernatant is combined with the first supernatant. […]
The binding buffer contains 25 mM 4-(2-hydroxyethyl)-1-piperazineethanesulfonic acid (HEPES), pH 7.4, 2.5 mM CaCl2, 1 mM MgCl2, 0.1% fatty acid free BSA, 0.003% Tween20, and Roche Complete™ Inhibitors without EDTA. […] Plates are read with a PerkinElmer Life and Analytical Sciences Trilux MicroBeta® scintillation counter after 12 hours of settling time at room temperature.
Results are calculated as a percent of specific I-125-glucagon binding in the presence of compound. […]

[2] = system: diet-induced obese Long Evans rats; test: Effects on food intake, body weight, body composition and plasma lipids in DIO Long Evans rats; assay type: in vivo
Protocol: Four to five months old male diet-induced obese Long Evans rats are used. Animals are individually housed in a temperature-controlled (24° C.) facility with a 12 hour light/dark cycle (lights on 22:00), and have free access to food (diet TD95217) and water. Animals are acclimated to the facility for at least 2 weeks. On day 0, body composition is determined by QNMR and rats are randomized to respective groups (n=6/group) based on body weight, % fat, and % lean mass. Compound is administered by subcutaneous injection on days 1, 4, 8, 11, and 15. […] After CO2 euthanasia, blood samples are taken by cardiac stick for analysis of exposure determination.

[3] = system: diet-induced obese (DIO) mice; test: Effects on food intake, body weight and body composition in DIO mice; assay type: in vivo; details: for Fat mass loss (g fat weight change for 14 days) / Total food intake (g total for 14 days) / Overall weight loss (g weight change for 14 days): DIO mice
Protocol: Effects on Food Intake, Body Weight and Body Composition in Diet-Induced Obese (DIO) Mice
Three to four months old male diet-induced obese (DIO) mice are used. Animals are individually housed in a temperature-controlled (24° C.) facility with a 12 hour light/dark cycle (lights on 22:00), and have free access to food and water. After 2 weeks acclimation to the facility, mice are randomized to treatment groups (n=8-10/group) so that each group has similar mean body weight and fat mass. Before the experiment, mice are subcutaneously (sc) injected with vehicle solution and weighed for 7 days to acclimate them to the procedures.
Vehicle or peptide analog (dose range 10-100 nmol/Kg) dissolved in vehicle is administered by sc injection to ad libitum fed DIO mice 30-90 minutes prior to the onset of the dark cycle […] for 2 to 4 weeks. Body weight and the weight of food plus the hopper are measured at the same time. Food consumed in the last 24 hours is calculated by subtracting current weight of food plus the hopper from that of the previous day. Absolute changes in body weight are calculated by subtracting the body weight of the animal prior to the first injection. On days −1 and 14, total fat mass is measured by nuclear magnetic resonance (NMR) using an Echo Medical System (Houston, Tex.) instrument. Fat free mass is calculated by subtracting fat mass from total body weight.

[4] = system: DIO mice; test: Oral glucose tolerance test after 2-week treatment in DIO mice; assay type: in vivo
Protocol: Fifty-six hours after the last injection of compound in the DIO study above the animals were subjected to an oral glucose tolerance test. In short, mice were fasted for 16 hours prior to the start of the glucose tolerance test. At time 0, animals are given 2 g/kg dextrose by oral gavage. Blood is collected by tail bleeding taken 0, 15, 30, 60 and 120 minutes after glucose challenge. Glucose concentration is measured by glucometer.

[5] = system: ovariectomized (OvX) Sprague Dawley rats; test: Skeletal effects in ovariectomized (OvX) Sprague Dawley rats; assay type: in vivo
Protocol: Example 4 was evaluated in 6 months old, ovariectomized (OvX; see Endocrinology 144: 2008-2015), Sprague Dawley rats. Doses of 0, 2.9, 9.7, or 29 nmol/kg were given to the rats as daily subcutaneous injections starting 9 days post surgery. […] It should be noted that loss in body weight (8% in this study) can directly affect bone mass. Bone strength is load dependent and losing weight results in a lower load on bones that carry weight and as a consequence less impact is observed on skeletal parameters of bones that carry weight, i.e. the femur cortical bone. Statistical significances were evaluated by a one-way ANOVA followed by a Dunnett's test.

[6] = OvX rats, 2.9 nmol/kg daily sc, 35 days
[7] = OvX rats, 9.7 nmol/kg daily sc, 35 days
[8] = OvX rats, 29 nmol/kg daily sc, 35 days

## Aib^2, Aib^13, Nal^22, Aib^29, Cys^43(PEG20K), Cys^44 (PEG20K)-GIP (Y[Aib]EGTFTSDYSI[Aib]LDKIAQRA[1Nal]VQWLIA[Aib]KGKKQEWKHQITQC(PEG 20 kDa)C(PEG 20 kDa)-NH2) [Example 4]
[1]
  Ki: > 7.49 µM
[2]; 10 nmol/Kg
  total cholesterol (plasma): 110 mg/dL
  triglycerides (plasma): 488.7 mg/dL
[2]; 30 nmol/Kg
  free fatty acids (plasma): 0.82 mEq/L
  total cholesterol (plasma): 104 mg/dL
  triglycerides (plasma): 212.2 mg/dL
[2]; 30 nmol/Kg over 16 days
  fat mass reduced: 1.8%
  lean mass increased: 0.4%
[2]; 100 nmol/Kg over 16 days
  fat mass reduced: 3.2%
  lean mass increased: 1.8%
[2]; over 16 days
  changes in body weight and body composition compared to vehicle-treated DIO rats: increasing the percentage of lean mass and decreasing the percentage of fat mass
[2]; versus vehicle
  amount of free fatty acids: increased
  amounts of plasma lipids, including triglycerides and total cholesterol: lowered
[3]; 14-day DIO mouse studies, summary of Tables 6a and 6b
  cumulative food intake and body weight compared to vehicle-treated mice: decreased
[3]; Table 6a, 10 nmol/Kg
  Fat mass loss (g fat weight change for 14 days): -3.6 ± 1.1 g
  Total food intake (g total for 14 days): 28.4 ± 1.8 g
[3]; Table 6a, 10 nmol/Kg sc every 3 days
  Overall weight loss (g weight change for 14 days): -4.5 ± 0.3 g
[3]; Table 6a, 30 nmol/Kg
  Fat mass loss (g fat weight change for 14 days): -4.7 ± 0.4 g
  Total food intake (g total for 14 days): 25.5 ± 2.6 g
[3]; Table 6a, 30 nmol/Kg sc every 3 days
  Overall weight loss (g weight change for 14 days): -6.0 ± 0.4 g
[3]; Table 6b, 10 nmol/Kg
  Fat mass loss (g fat weight change for 14 days): -3.6 ± 0.3 g
  Overall weight loss (g weight change for 14 days): -4.9 ± 0.4 g
  Total food intake (g total for 14 days): 26.9 ± 1.5 g
[4]; DIO mice, summary of Tables 7a and 7b
  glucose excursion following an oral glucose load: significantly reduced
[4]; Table 7a, OGTT 2 g/kg dextrose, 56 h after last injection, 10 nmol/Kg
  Glucose AUC, MEAN: 11725 mg·min/dL
[4]; Table 7a, OGTT, 30 nmol/Kg
  Glucose AUC, MEAN: 10907 mg·min/dL
[4]; Table 7b, OGTT, 10 nmol/Kg
  Glucose AUC, MEAN: 13719 mg·min/dL
[5]; [6]
  Bone mineral density (BMD) of lumbar vertebrae, MEAN: 557 mg/mL
  Changes in bone mineral content (BMC) of lumbar vertebrae, Bone mineral density (mg), MEAN: 9.75 mg
[5]; [7]
  Bone mineral density (BMD) of lumbar vertebrae, MEAN: 558 mg/mL
  Changes in bone mineral content (BMC) of lumbar vertebrae, Bone mineral density (mg), MEAN: 9.98 mg
[5]; [8]
  Bone mineral density (BMD) of lumbar vertebrae, MEAN: 588 mg/mL
  Changes in bone mineral content (BMC) of lumbar vertebrae, Bone mineral density (mg), MEAN: 10.49 mg
[5]; OvX rats, 2.9-29 nmol/kg daily, 35 days, dose responsive
  reduction of food consumption and body weight: up to 8%
[5]; OvX rats, 35 days
  OvX induced loss in bone mineral content and bone mineral density in lumbar vertebrae: dose-dependently prevented
  adverse effect on bone mineral density or bone mineral content in the femur and lumbar vertebra: did not adversely affect
  effect in mid femur cortical bone (BMC, BMD): no effect
  fat mass: decreased fat mass
  lean mass: no change
  non-fasted serum glucose and triglycerides: decreased
[5]; summary of Tables 8 and 9
  BMC and BMD in OvX rats: improves
